Experimental data: US6414150B1, “4,5-disubstituted imidazole compounds” (SmithKline Beecham Corporation, priority 1996, dated 2002)

What follows are compounds tested on human PGHS-2 protein expression in LPS stimulated human monocytes (assay: Prostaglandin Endoperoxide Synthase-2 (PGHS-2) assay). Details: LPS 50 ng/well overnight, Western blot.
Assay type: cell-based
Experimental: The following assay describes a method for determining the inhibitory effects of compounds of Formula (I) on human PGHS-2 protein expression in LPS stimulated human monocytes.
Method: Human peripheral blood monocytes were isolated from buffy coats by centrifugation through Ficoll and Percoll gradients. Cells were seeded at 2×10^6/well in 24 well plates and allowed to adhere for 1 hour in RPMI supplemented with 1% human AB serum, 20 mM L-glutamine, Penicillin-Streptomycin and 10 mM HEPES. Compounds were added at various concentrations and incubated at 37° C. for 10 minutes. LPS was added at 50 ng/well (to induce enzyme expression) and incubated overnight at 37° C. The supernatant was removed and cells washed once in cold PBS. The cells were lysed in […] of cold lysis buffer(50 mM Tris/HCl pH 7.5, 150 mM NaCl, 1% NP40, 0.5% sodium deoxycholate, 0.1% SDS, 300 ug/ml DNAse, 0.1% TRITON X-100, 1 mM PMSF, 1 mM leupeptin, 1 mM pepstatin). The lysate was centrifuged (10,000×g for 10 min. at 4° C.) to remove debris and the soluble fraction was subjected to SDS PAGE. analysis (12% gel). Protein separated on the gel were transferred onto nitrocellulose membrane by electrophoretic means for 2 hours at 60 volts. The membrane was pretreated for one hour in PBS/0.1% Tween 20 with 5% non-fat dry milk. After washing 3 times in PBS/Tween buffer, the membrane was incubated with a 1:2000 dilution of a monospecific antiserum to PGHS-2 or a 1:1000 dilution of an antiserum to PGHs-1 in PBS/Tween with 1% BSA for one hour with continuous shaking. The membrane was washed 3× in PBS/Tween and then incubated with a 1:3000 dilution of horseradish peroxidase conjugated donkey antiserum to rabbit Ig (Amersham) in PBS/Tween with 1% BSA for one hour with continuous shaking. The membrane was then washed 3× in PBS/Tween and the ECL immunodetection system (Amersham) was used to detect the level of expression of prostaglandin endoperoxide synthases-2.

Structure (SMILES)	inhibition of LPS induced PGHS-2 protein expression
C[C@@H]1C[C@H]2[C@@H]3CCC4=CC(=O)C=C[C@]4(C)[C@@]3(F)[C@@H](O)C[C@]2(C)[C@@]1(O)C(=O)CO [Dexamethasone]	active
Fc1ccc(-c2nc3n(c2-c2ccncc2)CCS3)cc1 [6-(4-Fluoro-phenyl)-2,3-dihydro-5-(4-pyridinyl)imidazo[2,1-b]thiazole]	active

Same assay, conditions: tested up to 10 uM

Structure (SMILES)	inhibition of LPS induced PGHS-2 protein expression
C[S+]([O-])c1ccc(-c2nc3n(c2-c2ccncc2)CCC3)cc1 (stereo not drawn) [2-(4-Methylsulfinylphenyl)-3-(4-pyridyl)-6,7-dihydro-(5H)-pyrrolo[1,2-a]imidazole]	inactive
CC(Cc1ccc(O)c(O)c1)C(C)Cc1ccc(O)c(O)c1 (stereo not drawn) [NDGA]	inactive
COc1ccc(C2CNC(=O)C2)cc1OC1CCCC1 (stereo not drawn) [rolipram]	inactive
O=C1CCN(c2ccccc2)N1 [phenidone]	inactive
